Data from US20180110754A1, “CENICRIVIROC FOR THE TREATMENT OF FIBROSIS” (Tobira Therapeutics, Inc., priority 2015, published 2018).

Experiment: Study 202: fasting metabolic laboratory parameters
Assay type: in vivo
Source text: All abnormalities in total cholesterol, LDL cholesterol, triglycerides, or glucose were Grade 1 or Grade 2.
Mean baseline values and changes from baseline in HbA1c, HOMA-IR, fasting LDL, fasting HDL, fasting total cholesterol, fasting total cholesterol/HDL ratio, and fasting triglycerides are shown in Table 36.

[1] = All CVC (N = 115), EFV (N = 28), through Week 48
[2] = CVC 100 mg (N = 58), through Week 48
[3] = CVC 200 mg (N = 57), through Week 48

CCCCOCCOc1ccc(-c2ccc3c(c2)/C=C(/C(=O)Nc2ccc([S@@+]([O-])Cc4cncn4CCC)cc2)CCCN3CC(C)C)cc1 [CVC, (S)-8-[4-(2-Butoxyethoxy)phenyl]-1-isobutyl-N-(4-{[(1-propyl-1H-imidazol-5-yl)methyl]sulfinyl}phenyl)-1,2,3,4-tetrahydro-1-benzazocine-5-carboxamide]
Any graded (Grade 1-4) fasting laboratory abnormality, n subjects [1]: 16 | Fasting LDL cholesterol abnormality, any grade, n subjects [1]: 6 | Fasting LDL cholesterol, worst Grade 1, n subjects [1]: 3 | Fasting LDL cholesterol, worst Grade 2, n subjects [1]: 3 | Fasting LDL cholesterol, worst Grade 3, n subjects [1]: 0 | Fasting LDL cholesterol, worst Grade 4, n subjects [1]: 0 | Fasting glucose (serum, high) abnormality, any grade, n subjects [1]: 5 | Fasting glucose (serum, high), worst Grade 1, n subjects [1]: 3 | Fasting glucose (serum, high), worst Grade 2, n subjects [1]: 2 | Fasting glucose (serum, high), worst Grade 3, n subjects [1]: 0 | Fasting glucose (serum, high), worst Grade 4, n subjects [1]: 0 | Fasting laboratory abnormality, worst Grade 1, n subjects [1]: 9 | Fasting laboratory abnormality, worst Grade 2, n subjects [1]: 7 | Fasting laboratory abnormality, worst Grade 3, n subjects [1]: 0 | Fasting laboratory abnormality, worst Grade 4, n subjects [1]: 0 | Fasting total cholesterol abnormality, any grade, n subjects [1]: 8 | Fasting total cholesterol, worst Grade 1, n subjects [1]: 5 | Fasting total cholesterol, worst Grade 2, n subjects [1]: 3 | Fasting total cholesterol, worst Grade 3, n subjects [1]: 0 | Fasting total cholesterol, worst Grade 4, n subjects [1]: 0 | Fasting triglycerides abnormality, any grade, n subjects [1]: 1 | Fasting triglycerides, worst Grade 1, n subjects [1]: 0 | Fasting triglycerides, worst Grade 2, n subjects [1]: 1 | Fasting triglycerides, worst Grade 3, n subjects [1]: 0 | Fasting triglycerides, worst Grade 4, n subjects [1]: 0 | Any graded (Grade 1-4) fasting laboratory abnormality, n subjects [2]: 4 (7%) | Fasting LDL cholesterol abnormality, any grade, n subjects [2]: 2 (3%) | Fasting LDL cholesterol, worst Grade 1, n subjects [2]: 1 (2%) | Fasting LDL cholesterol, worst Grade 2, n subjects [2]: 1 (2%) | Fasting LDL cholesterol, worst Grade 3, n subjects [2]: 0 | Fasting LDL cholesterol, worst Grade 4, n subjects [2]: 0 | Fasting glucose (serum, high) abnormality, any grade, n subjects [2]: 0 | Fasting glucose (serum, high), worst Grade 1, n subjects [2]: 0 | Fasting glucose (serum, high), worst Grade 2, n subjects [2]: 0 | Fasting glucose (serum, high), worst Grade 3, n subjects [2]: 0 | Fasting glucose (serum, high), worst Grade 4, n subjects [2]: 0 | Fasting laboratory abnormality, worst Grade 1, n subjects [2]: 3 (5%) | Fasting laboratory abnormality, worst Grade 2, n subjects [2]: 1 (2%) | Fasting laboratory abnormality, worst Grade 3, n subjects [2]: 0 | Fasting laboratory abnormality, worst Grade 4, n subjects [2]: 0 | Fasting total cholesterol abnormality, any grade, n subjects [2]: 3 (5%) | Fasting total cholesterol, worst Grade 1, n subjects [2]: 3 (5%) | Fasting total cholesterol, worst Grade 2, n subjects [2]: 0 | Fasting total cholesterol, worst Grade 3, n subjects [2]: 0 | Fasting total cholesterol, worst Grade 4, n subjects [2]: 0 | Fasting triglycerides abnormality, any grade, n subjects [2]: 0 | Fasting triglycerides, worst Grade 1, n subjects [2]: 0 | Fasting triglycerides, worst Grade 2, n subjects [2]: 0 | Fasting triglycerides, worst Grade 3, n subjects [2]: 0 | Fasting triglycerides, worst Grade 4, n subjects [2]: 0 | Any graded (Grade 1-4) fasting laboratory abnormality, n subjects [3]: 12 | Fasting LDL cholesterol abnormality, any grade, n subjects [3]: 4 | Fasting LDL cholesterol, worst Grade 1, n subjects [3]: 2 | Fasting LDL cholesterol, worst Grade 2, n subjects [3]: 2 | Fasting LDL cholesterol, worst Grade 3, n subjects [3]: 0 | Fasting LDL cholesterol, worst Grade 4, n subjects [3]: 0 | Fasting glucose (serum, high) abnormality, any grade, n subjects [3]: 5 | Fasting glucose (serum, high), worst Grade 1, n subjects [3]: 3 | Fasting glucose (serum, high), worst Grade 2, n subjects [3]: 2 | Fasting glucose (serum, high), worst Grade 3, n subjects [3]: 0 | Fasting glucose (serum, high), worst Grade 4, n subjects [3]: 0 | Fasting laboratory abnormality, worst Grade 1, n subjects [3]: 6 | Fasting laboratory abnormality, worst Grade 2, n subjects [3]: 6 | Fasting laboratory abnormality, worst Grade 3, n subjects [3]: 0 | Fasting laboratory abnormality, worst Grade 4, n subjects [3]: 0 | Fasting total cholesterol abnormality, any grade, n subjects [3]: 5 | Fasting total cholesterol, worst Grade 1, n subjects [3]: 2 | Fasting total cholesterol, worst Grade 2, n subjects [3]: 3 | Fasting total cholesterol, worst Grade 3, n subjects [3]: 0 | Fasting total cholesterol, worst Grade 4, n subjects [3]: 0 | Fasting triglycerides abnormality, any grade, n subjects [3]: 1 | Fasting triglycerides, worst Grade 1, n subjects [3]: 0 | Fasting triglycerides, worst Grade 2, n subjects [3]: 1 | Fasting triglycerides, worst Grade 3, n subjects [3]: 0 | Fasting triglycerides, worst Grade 4, n subjects [3]: 0 | Fasting HDL, mean change from baseline (Week 4, All CVC, EFV): -2.92 mg/dL | Fasting LDL, mean change from baseline (Week 4, All CVC, EFV): -9.72 mg/dL | Fasting total cholesterol, mean change from baseline (Week 4, All CVC, EFV): -14 mg/dL | Fasting triglycerides, mean change from baseline (Week 4, All CVC, EFV): -5 mg/dL | HOMA-IR, mean change from baseline (Week 4, All CVC, EFV): −0.30 | HbA1c, mean change from baseline (Week 4, All CVC, EFV): −0.03 % Hb | Fasting HDL, mean change from baseline (Week 4, CVC 100 mg): -3.98 mg/dL | Fasting LDL, mean change from baseline (Week 4, CVC 100 mg): -10.90 mg/dL | Fasting total cholesterol, mean change from baseline (Week 4, CVC 100 mg): -16 mg/dL | Fasting triglycerides, mean change from baseline (Week 4, CVC 100 mg): -8 mg/dL | HOMA-IR, mean change from baseline (Week 4, CVC 100 mg): 0.11 | HbA1c, mean change from baseline (Week 4, CVC 100 mg): 0.01 % Hb | Fasting HDL, mean change from baseline (Week 4, CVC 200 mg): -1.84 mg/dL | Fasting LDL, mean change from baseline (Week 4, CVC 200 mg): -8.46 mg/dL | Fasting total cholesterol, mean change from baseline (Week 4, CVC 200 mg): -12 mg/dL | Fasting triglycerides, mean change from baseline (Week 4, CVC 200 mg): -2 mg/dL | HOMA-IR, mean change from baseline (Week 4, CVC 200 mg): −0.71 | HbA1c, mean change from baseline (Week 4, CVC 200 mg): −0.08 % Hb | Fasting HDL, mean change from baseline (Week 12, All CVC, EFV): -2.09 mg/dL | Fasting LDL, mean change from baseline (Week 12, All CVC, EFV): -11.44 mg/dL | Fasting total cholesterol, mean change from baseline (Week 12, All CVC, EFV): -17 mg/dL | Fasting triglycerides, mean change from baseline (Week 12, All CVC, EFV): -15 mg/dL | HOMA-IR, mean change from baseline (Week 12, All CVC, EFV): −0.56 | HbA1c, mean change from baseline (Week 12, All CVC, EFV): −0.06 % Hb | Fasting HDL, mean change from baseline (Week 12, CVC 100 mg): -2.96 mg/dL | Fasting LDL, mean change from baseline (Week 12, CVC 100 mg): -11.20 mg/dL | Fasting total cholesterol, mean change from baseline (Week 12, CVC 100 mg): -17 mg/dL | Fasting triglycerides, mean change from baseline (Week 12, CVC 100 mg): -16 mg/dL | HOMA-IR, mean change from baseline (Week 12, CVC 100 mg): −0.59 | HbA1c, mean change from baseline (Week 12, CVC 100 mg): −0.04 % Hb | Fasting HDL, mean change from baseline (Week 12, CVC 200 mg): -1.22 mg/dL | Fasting LDL, mean change from baseline (Week 12, CVC 200 mg): -11.69 mg/dL | Fasting total cholesterol, mean change from baseline (Week 12, CVC 200 mg): -16 mg/dL | Fasting triglycerides, mean change from baseline (Week 12, CVC 200 mg): -13 mg/dL | HOMA-IR, mean change from baseline (Week 12, CVC 200 mg): −0.53 | HbA1c, mean change from baseline (Week 12, CVC 200 mg): −0.08 % Hb | Fasting HDL, mean change from baseline (Week 24, All CVC, EFV): -1.45 mg/dL | Fasting LDL, mean change from baseline (Week 24, All CVC, EFV): -8.64 mg/dL | Fasting total cholesterol, mean change from baseline (Week 24, All CVC, EFV): -13 mg/dL | Fasting triglycerides, mean change from baseline (Week 24, All CVC, EFV): -15 mg/dL | HOMA-IR, mean change from baseline (Week 24, All CVC, EFV): −0.68 | HbA1c, mean change from baseline (Week 24, All CVC, EFV): 0.06 % Hb | Fasting HDL, mean change from baseline (Week 24, CVC 100 mg): -2.15 mg/dL | Fasting LDL, mean change from baseline (Week 24, CVC 100 mg): -10.21 mg/dL | Fasting total cholesterol, mean change from baseline (Week 24, CVC 100 mg): -14 mg/dL | Fasting triglycerides, mean change from baseline (Week 24, CVC 100 mg): -8 mg/dL | HOMA-IR, mean change from baseline (Week 24, CVC 100 mg): −1.42 | HbA1c, mean change from baseline (Week 24, CVC 100 mg): 0.06 % Hb | Fasting HDL, mean change from baseline (Week 24, CVC 200 mg): -0.71 mg/dL | Fasting LDL, mean change from baseline (Week 24, CVC 200 mg): -6.93 mg/dL | Fasting total cholesterol, mean change from baseline (Week 24, CVC 200 mg): -12 mg/dL | Fasting triglycerides, mean change from baseline (Week 24, CVC 200 mg): -23 mg/dL | HOMA-IR, mean change from baseline (Week 24, CVC 200 mg): 0.15 | HbA1c, mean change from baseline (Week 24, CVC 200 mg): 0.06 % Hb | Fasting HDL, mean change from baseline (Week 48, All CVC, EFV): -0.96 mg/dL | Fasting LDL, mean change from baseline (Week 48, All CVC, EFV): -8.49 mg/dL | Fasting total cholesterol, mean change from baseline (Week 48, All CVC, EFV): -12 mg/dL | Fasting triglycerides, mean change from baseline (Week 48, All CVC, EFV): -12 mg/dL | HOMA-IR, mean change from baseline (Week 48, All CVC, EFV): −0.76 | HbA1c, mean change from baseline (Week 48, All CVC, EFV): 0.10 % Hb | Fasting HDL, mean change from baseline (Week 48, CVC 100 mg): -1.63 mg/dL | Fasting LDL, mean change from baseline (Week 48, CVC 100 mg): -11.16 mg/dL | Fasting total cholesterol, mean change from baseline (Week 48, CVC 100 mg): -14 mg/dL | Fasting triglycerides, mean change from baseline (Week 48, CVC 100 mg): -9 mg/dL | HOMA-IR, mean change from baseline (Week 48, CVC 100 mg): −1.56 | HbA1c, mean change from baseline (Week 48, CVC 100 mg): 0.09 % Hb | Fasting HDL, mean change from baseline (Week 48, CVC 200 mg): -0.21 mg/dL | Fasting LDL, mean change from baseline (Week 48, CVC 200 mg): -5.20 mg/dL | Fasting total cholesterol, mean change from baseline (Week 48, CVC 200 mg): -9 mg/dL | Fasting triglycerides, mean change from baseline (Week 48, CVC 200 mg): -16 mg/dL | HOMA-IR, mean change from baseline (Week 48, CVC 200 mg): 0.17 | HbA1c, mean change from baseline (Week 48, CVC 200 mg): 0.10 % Hb | Change in fasting cholesterol (total, LDL, HDL) during treatment (through Week 48): A decrease was observed
